Assay results taken from PubChem BioAssay AID1963840 (Molecular Pharmacology Branch, DTP, NCI, 2024).
pIC50: −log10 of the molar value.

Tested on: 695427-040-R-J1-PDC complex spheroid viability
Assay: Anticancer human tumor 695427-040-R-J1-PDC patient-derived colon adenocarcinoma cell line growth inhibition [POLQ]
Details: for pIC50: curve of first compound; for viability, T/C: stronger effect = lower value
Outline: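 PDC + HUVEC + MSC complex spheroids; POLQ inhibitors ± partner drugs; top conc. at/near clinical Cmax, else 10 microM (SN-38 1 microM), half-log dilutions; 37 degrees C, 5% CO2.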

[1] = second compound 0.0316 µM, first compound 0.0316 µM
[2] = second compound 0.0316 µM, first compound 0.1 µM
[3] = second compound 0.0316 µM, first compound 0.316 µM
[4] = second compound 0.0316 µM, first compound 1 µM
[5] = second compound 0.0316 µM, first compound 3.16 µM
[6] = second compound 0.0316 µM, first compound 10 µM
[7] = second compound 0.1 µM, first compound 0.0316 µM
[8] = second compound 0.1 µM, first compound 0.1 µM
[9] = second compound 0.1 µM, first compound 0.316 µM
[10] = second compound 0.1 µM, first compound 1 µM
[11] = second compound 0.1 µM, first compound 3.16 µM
[12] = second compound 0.1 µM, first compound 10 µM
[13] = second compound 0.316 µM, first compound 0.0316 µM
[14] = second compound 0.316 µM, first compound 0.1 µM
[15] = second compound 0.316 µM, first compound 0.316 µM
[16] = second compound 0.316 µM, first compound 1 µM
[17] = second compound 0.316 µM, first compound 3.16 µM
[18] = second compound 0.316 µM, first compound 10 µM
[19] = second compound 1 µM, first compound 0.0316 µM
[20] = second compound 1 µM, first compound 0.1 µM
[21] = second compound 1 µM, first compound 0.316 µM
[22] = second compound 1 µM, first compound 1 µM
[23] = second compound 1 µM, first compound 3.16 µM
[24] = second compound 1 µM, first compound 10 µM
[25] = second compound 3.16 µM, first compound 0.0316 µM
[26] = second compound 3.16 µM, first compound 0.1 µM
[27] = second compound 3.16 µM, first compound 0.316 µM
[28] = second compound 3.16 µM, first compound 1 µM
[29] = second compound 3.16 µM, first compound 3.16 µM
[30] = second compound 3.16 µM, first compound 10 µM
[31] = second compound 10 µM, first compound 0.0316 µM
[32] = second compound 10 µM, first compound 0.1 µM
[33] = second compound 10 µM, first compound 0.316 µM
[34] = second compound 10 µM, first compound 1 µM
[35] = second compound 10 µM, first compound 3.16 µM
[36] = second compound 10 µM, first compound 10 µM
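Also: spheroids exposed to compounds for seven days.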
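For viability, T/C in this document: 100% = DMSO vehicle control viability.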

Compound `COc1cc(C2c3cc4c(cc3C(OC3OC5COC(C)OC5C(O)C3O)C3COC(=O)C23)OCO4)cc(OC)c1O` (centres undefined) + Nc1ccc(C#CCN(C(=O)Cc2ncc(C(F)(F)F)cc2C(F)(F)F)c2ccc(F)cc2)nn1 has a pIC50 (second compound 0.0316 µM) of under 5.00, a pIC50 (second compound 0.1 µM) of under 5.00 and a pIC50 (second compound 0.316 µM) of under 5.00. The pIC50 (second compound 1 µM) was under 5.00, the pIC50 (second compound 3.16 µM) was under 5.00 and the pIC50 (second compound 10 µM) was under 5.00. It also gave a viability, T/C [1] of 104%, a viability, T/C [2] of 97.9% and a viability, T/C [3] of 98%. The viability, T/C [4] was 97.8%, the viability, T/C [5] was 95.2% and the viability, T/C [6] was 87.4%. For the same compound, the viability, T/C [7] was 99%, the viability, T/C [8] was 97.2% and the viability, T/C [9] was 100%. It also gave a viability, T/C [10] of 104%, a viability, T/C [11] of 102% and a viability, T/C [12] of 89.4%. The viability, T/C [13] was 98.4%, the viability, T/C [14] was 90.5% and the viability, T/C [15] was 98.3%. It also gave a viability, T/C [16] of 97.6%, a viability, T/C [17] of 113% and a viability, T/C [18] of 91.3%. For the same compound, the viability, T/C [19] was 101%, the viability, T/C [20] was 97.5% and the viability, T/C [21] was 105%. It also gave a viability, T/C [22] of 97.5%, a viability, T/C [23] of 106% and a viability, T/C [24] of 73.5%. For the same compound, the viability, T/C [25] was 96.2%, the viability, T/C [26] was 94.3% and the viability, T/C [27] was 98.5%. For the same compound, the viability, T/C [28] was 99.2%, the viability, T/C [29] was 101% and the viability, T/C [30] was 81.5%. For the same compound, the viability, T/C [31] was 92.7%, the viability, T/C [32] was 89% and the viability, T/C [33] was 88.8%. For the same compound, the viability, T/C [34] was 87.8%, the viability, T/C [35] was 85.9% and the viability, T/C [36] was 84.9%.

`COc1cccc2c1C(=O)c1c(O)c3c(c(O)c1C2=O)CC(O)(C(=O)CO)CC3OC1CC(N)C(O)C(C)O1` (centres undefined) + Nc1ccc(C#CCN(C(=O)Cc2ncc(C(F)(F)F)cc2C(F)(F)F)c2ccc(F)cc2)nn1 gave a pIC50 (second compound 0.0316 µM) of under 5.00, a pIC50 (second compound 0.1 µM) of under 5.00 and a pIC50 (second compound 0.316 µM) of under 5.00. It also gave a pIC50 (second compound 1 µM) of under 5.00, a pIC50 (second compound 3.16 µM) of under 5.00 and a pIC50 (second compound 10 µM) of 5.47. For the same compound, the viability, T/C [1] was 101%, the viability, T/C [2] was 90.9% and the viability, T/C [3] was 97.3%. The viability, T/C [4] was 78.2%, the viability, T/C [5] was 79.6% and the viability, T/C [6] was 71%. For the same compound, the viability, T/C [7] was 113%, the viability, T/C [8] was 95% and the viability, T/C [9] was 98.9%. It also gave a viability, T/C [10] of 80%, a viability, T/C [11] of 84.5% and a viability, T/C [12] of 64.6%. For the same compound, the viability, T/C [13] was 99.6%, the viability, T/C [14] was 99.8% and the viability, T/C [15] was 94.4%. For the same compound, the viability, T/C [16] was 83.7%, the viability, T/C [17] was 81.5% and the viability, T/C [18] was 68.3%. It also gave a viability, T/C [19] of 106%, a viability, T/C [20] of 89.5% and a viability, T/C [21] of 95.7%. The viability, T/C [22] was 81.8%, the viability, T/C [23] was 79.6% and the viability, T/C [24] was 58.6%. The viability, T/C [25] was 96.2%, the viability, T/C [26] was 92% and the viability, T/C [27] was 90.9%. It also gave a viability, T/C [28] of 77.8%, a viability, T/C [29] of 76.9% and a viability, T/C [30] of 51.6%. It also gave a viability, T/C [31] of 95.8%, a viability, T/C [32] of 84.3% and a viability, T/C [33] of 86.6%. For the same compound, the viability, T/C [34] was 68.7%, the viability, T/C [35] was 50.8% and the viability, T/C [36] was 35.3%.
